{"source": "paper PMC3463759", "about": "(Clinical cancer research : an official journal of the …, 2012)", "key": {"[1]": {"details": "for reduction of Cmax: paclitaxel with dasatinib (Cycle 2 Day 1) vs paclitaxel alone (Cycle 1 Day 1)"}, "[2]": {"assay": "clinical", "details": "human, plasma, intravenous"}, "[3]": {"details": "paclitaxel alone, Cycle 1 Day 1, N=20"}, "[4]": {"details": "paclitaxel alone, Cycle 1 Day 1, N=20, dose-normalized to 175 mg/m^2"}, "[5]": {"details": "paclitaxel and dasatinib, Cycle 2 Day 1, N=18"}, "[6]": {"details": "paclitaxel and dasatinib, Cycle 2 Day 1, N=18, dose-normalized to 175 mg/m^2"}, "[7]": {"details": "paclitaxel with dasatinib vs paclitaxel alone"}}, "note": "Read-outs that look alike come from different tables or passages of the source."}
{"smiles": "CC(=O)O[C@H]1C(=O)[C@@]2(C)[C@H]([C@H](OC(=O)c3ccccc3)[C@]3(O)C[C@H](OC(=O)[C@H](O)[C@@H](NC(=O)c4ccccc4)c4ccccc4)C(C)=C1C3(C)C)[C@]1(OC(C)=O)CO[C@@H]1[C@@H](O)[C@@H]2O", "note": "[6-OH paclitaxel]", "values": [{"measurement": "inter-individual variability (%CV) for exposure", "setting": "[1]; in vivo", "value": "40–70%"}, {"measurement": "T-HALF, Mean (SD)", "setting": "[1]; [3]", "value": 1.26, "unit": "h"}, {"measurement": "AUC(0-T), Geo Mean (%CV)", "setting": "[1]; [4]", "value": "732 (53) ng•h/mL"}, {"measurement": "AUC(INF), Geo Mean (%CV)", "setting": "[1]; [4]", "value": "771 (53) ng•h/mL"}, {"measurement": "Cmax, Geo Mean (%CV)", "setting": "[1]; [4]", "value": "349 (44) ng/mL"}, {"measurement": "T-HALF, Mean (SD)", "setting": "[1]; paclitaxel alone, Cycle 1 Day 1, N=20, listed as 6-OH Paclitaxel", "value": "1.26 (0.75) h"}, {"measurement": "M/P, metabolite to parent ratio based on dose normalized AUC(INF), Mean (SD)", "setting": "[1]; paclitaxel alone, N=20", "value": "0.06 (0.04)"}, {"measurement": "T-HALF, Mean (SD)", "setting": "[1]; [5]", "value": 0.94, "unit": "h"}, {"measurement": "AUC(0-T), Geo Mean (%CV)", "setting": "[1]; [6]", "value": "562 (68) ng•h/mL"}, {"measurement": "AUC(INF), Geo Mean (%CV)", "setting": "[1]; [6]", "value": "615 (68) ng•h/mL"}, {"measurement": "Cmax, Geo Mean (%CV)", "setting": "[1]; [6]", "value": "260 (58) ng/mL"}, {"measurement": "T-HALF, Mean (SD)", "setting": "[1]; paclitaxel and dasatinib, Cycle 2 Day 1, N=18, listed as 6-OH Paclitaxel", "value": "0.94 (0.47) h"}, {"measurement": "M/P, metabolite to parent ratio based on dose normalized AUC(INF), Mean (SD)", "setting": "[1]; paclitaxel and dasatinib, N=18", "value": "0.05 (0.02)"}, {"measurement": "reduction of Cmax", "setting": "[1]", "value": 25, "unit": "%"}, {"measurement": "reduction of geometric mean AUC(0-T)", "setting": "[1]; [7]", "value": 23, "unit": "%"}, {"measurement": "reduction of geometric mean AUC(INF)", "setting": "[1]; [7]", "value": 20, "unit": "%"}, {"measurement": "reduction of mean T-HALF", "setting": "[1]; [7]", "value": 25, "unit": "%"}]}
{"smiles": "CC(=O)O[C@H]1C(=O)[C@@]2(C)[C@H]([C@H](OC(=O)c3ccccc3)[C@]3(O)C[C@H](OC(=O)[C@H](O)[C@@H](NC(=O)c4ccccc4)c4ccccc4)C(C)=C1C3(C)C)[C@]1(OC(C)=O)CO[C@@H]1C[C@@H]2O", "note": "[paclitaxel]", "values": [{"measurement": "MRT inf", "setting": "[2]", "value": 6.9, "unit": "h"}, {"measurement": "Vd", "setting": "[2]", "value": 163, "unit": "L"}, {"measurement": "AUC(0-inf)", "setting": "[2]; 175 mg/m^2", "value": 16100, "unit": "ng·h/mL"}, {"measurement": "AUC(0-t)", "setting": "[2]; 175 mg/m^2", "value": 15700, "unit": "ng·h/mL"}, {"measurement": "Cmax", "setting": "[2]; 175 mg/m^2", "value": 4820, "unit": "ng/mL"}, {"measurement": "MRT inf", "setting": "[2]; 175 mg/m^2", "value": 6.7, "unit": "h"}, {"measurement": "differences in mean T-HALF, MRT(INF), CLt, and Vss", "setting": "[1]; paclitaxel alone vs paclitaxel in combination with dasatinib", "value": "less than 20%"}, {"measurement": "CLt, Mean (SD)", "setting": "[1]; [3]", "value": "20.9 (6.3) L/h"}, {"measurement": "T-HALF, Mean (SD)", "setting": "[1]; [3]", "value": "11.7 (1.6) h"}, {"measurement": "CLt, Mean (SD)", "setting": "[1]; [5]", "value": "24.3 (6.0) L/h"}, {"measurement": "T-HALF, Mean (SD)", "setting": "[1]; [5]", "value": "11.7 (3.8) h"}, {"measurement": "reduction of Cmax", "setting": "[1]", "value": 19, "unit": "%"}, {"measurement": "reduction of geometric mean AUC(0-T)", "setting": "[1]; [7]", "value": 15, "unit": "%"}, {"measurement": "reduction of geometric mean AUC(INF)", "setting": "[1]; [7]", "value": 14, "unit": "%"}]}
